The text below walks through data of ChEMBL document CHEMBL2073794, “Catecholamine transport by the organic cation transporter type 1 (OCT1)” (Br J Pharmacol, 1998).

The data set concerns the target T1, Solute carrier family 22 member 1 (Rattus norvegicus, UniProt Q63089).
T1 sequence (Q63089 whole entry): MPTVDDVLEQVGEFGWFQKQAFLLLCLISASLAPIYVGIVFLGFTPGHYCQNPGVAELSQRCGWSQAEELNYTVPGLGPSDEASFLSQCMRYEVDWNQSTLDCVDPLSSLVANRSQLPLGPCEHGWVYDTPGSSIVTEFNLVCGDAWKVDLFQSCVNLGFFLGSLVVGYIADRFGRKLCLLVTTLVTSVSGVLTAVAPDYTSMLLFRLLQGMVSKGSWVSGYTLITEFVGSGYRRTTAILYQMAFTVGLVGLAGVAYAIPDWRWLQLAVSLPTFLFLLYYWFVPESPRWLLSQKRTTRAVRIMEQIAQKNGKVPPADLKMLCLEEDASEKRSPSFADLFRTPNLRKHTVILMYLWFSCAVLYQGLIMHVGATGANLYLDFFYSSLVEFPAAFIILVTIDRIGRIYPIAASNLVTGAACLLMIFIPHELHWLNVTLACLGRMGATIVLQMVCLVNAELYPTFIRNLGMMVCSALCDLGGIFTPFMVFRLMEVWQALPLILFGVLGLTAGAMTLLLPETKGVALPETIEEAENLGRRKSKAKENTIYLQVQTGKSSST
Put plainly: TP_TRANSPORTER: uptake in OCT1-expressing HEK293 cells. Type of data set: functional, cell-based. To be noted: human.
On to `NC[C@H](O)c1ccc(O)c(O)c1` [NOREPINEPHRINE], for which the Activity entry is “substrate [+]”.
On to `NCCc1ccc(O)cc1` [TYRAMINE], for which the Activity result was “substrate [+]”.
Next, `CC[N+](CC)(CC)CC` [TETRYLAMMONIUM]: “substrate [+]”.
On to `CNC[C@H](O)c1ccc(O)c(O)c1` [EPINEPHRINE], for which the Activity result is “substrate [+]”.
Take `NCCc1ccc(O)c(O)c1` [DOPAMINE]: the Activity entry is “substrate [+]”.
As to `NCCc1c[nH]c2ccc(O)cc12` [SEROTONIN], the Activity result was “substrate [+]”.
